Structures can show the parent of a compound that is named as a salt.
These compounds were tested against T1, human Cav2.2 α (α1B) subunit, along with the human β3 and α2δ1 auxiliary subunits (Homo sapiens, UniProt Q00975) (assay: hCav2.2 assay, IonWorks planar array electrophysiology in stable HEK293 cell line). Conditions: inhibition by 50% of current elicited by the 1st depolarising pulse; HEK293 cells; read-out: tonic pIC50 (converted).
T1 construct: expressed in transfected cells
Type: cell-based
Description: Compounds as defined in the first or second aspect may be tested for in vitro biological activity in the hCav2.2 assay in accordance with the following studies:
Stable cell lines expressing the human Cav2.2 α (α1B) subunit, along with the human β3 and α2δ1 auxiliary subunits were created following sequential transfection and selection of human embryonic kidney (HEK293) cells. HEK293 cells were cultured in Dulbecco's modified Eagles media/F12 media (Invitrogen, Cat #041-95750V) containing 10% fetal bovine serum, with added L-glutamine (2 mM; Invitrogen, Cat #25030-024) and non-essential amino acids (5%; Invitrogen, Cat #11140-035). Initially HEK293 cells were transfected with two plasmid vectors for expression of the hCav2.2 α subunit (pCIN5-hCav2.2 which carries a neomycin resistance marker) and the hCav β3 subunit (pCIH-hCav β3 which carries a hygromycin resistance marker). Clonal cell lines were isolated following selection in media supplemented with 0.4 mg ml^−1 Geneticin G418 (Invitrogen, Cat #10131-027) and 0.1 mg ml^−1 hygromycin (Invitrogen, Cat #10687-010). These clonal cell lines were assessed for Cav2.2 α/β3-mediated current expression using the IonWorks planar array electrophysiology technology (described below). A clonal line was identified that gave a reasonable level of functional Cav2.2 α/β3 current expression. This cell line was transfected with a plasmid vector for expression of the human α2δ1 subunit (pCIP-α2δ1 which carries a puromycin resistance marker) and clonal cell lines isolated following selection in media containing 0.62 μg ml^−1 puromycin (Sigma, Cat #P-7255), in addition to 0.4 mg ml^−1 Geneticin G418 and 0.1 mg ml^−1 hygromycin. Several cell lines were identified that gave robust levels of Cav2.2 α/β3/α2δ1-mediated current expression and one of these was selected for compound profiling. Expression of all three subunits within this cell line was continuously maintained by the inclusion of G418 (0.4 mg ml^−1), hygromycin (0.1 mg ml^−1) and puromycin (0.62 μg ml^−1). Cells were maintained at 37° C. in a humidified environment containing 5% CO2 in air. Cells were liberated from the T175 culture flasks for passage and harvesting using TrpLE (Invitrogen, Cat #12604-013).
Cells were grown to 30-60% confluence in T175 flasks and maintained at 30° C. for 24 hrs prior to recording. Cells were lifted by removing the growth media, washing with Ca^2+ free PBS (Invitrogen, Cat #14190-094) and incubating with 3 ml of warmed (37° C.) TrpLE (Invitrogen, Cat #12604-013) for 6 minutes. Lifted cells were suspended in 10 ml of extracellular buffer. Cell suspension was then placed into a 15 ml tube and centrifuged for 2 minutes at 700 rpm. After centrifugation, the supernatant was removed and the cell pellet was resuspended in 4.5 ml of extracellular solution.
Currents were recorded at room temperature (21-23° C.) using the IonWorks planar array electrophysiology technology (Molecular Devices Corp.). Stimulation protocols and data acquisition were carried out using a microcomputer (Dell Pentium 4). In order to determine planar electrode hole resistances (Rp), a 10 mV, 160 ms potential difference was applied across each hole. These measurements were performed before cell addition. After cell addition a seal test was performed prior to antibiotic (amphotericin) circulation to achieve intracellular access. Leak subtraction was conducted in all experiments by applying a 160 ms hyperpolarizing (10 mV) prepulse 200 ms before the test pulses to measure leak conductance. Test pulses stepping from the holding potential (VH) of −90 mV to +10 mV were applied for 20 ms and repeated 10 times at a frequency of 10 Hz. In all experiments, the test pulse protocol was performed in the absence (pre-read) and presence (post-read) of a compound. Pre- and post-reads were separated by a compound addition followed by a 3-3.5 min incubation. […]

T1 sequence (Q00975 whole entry): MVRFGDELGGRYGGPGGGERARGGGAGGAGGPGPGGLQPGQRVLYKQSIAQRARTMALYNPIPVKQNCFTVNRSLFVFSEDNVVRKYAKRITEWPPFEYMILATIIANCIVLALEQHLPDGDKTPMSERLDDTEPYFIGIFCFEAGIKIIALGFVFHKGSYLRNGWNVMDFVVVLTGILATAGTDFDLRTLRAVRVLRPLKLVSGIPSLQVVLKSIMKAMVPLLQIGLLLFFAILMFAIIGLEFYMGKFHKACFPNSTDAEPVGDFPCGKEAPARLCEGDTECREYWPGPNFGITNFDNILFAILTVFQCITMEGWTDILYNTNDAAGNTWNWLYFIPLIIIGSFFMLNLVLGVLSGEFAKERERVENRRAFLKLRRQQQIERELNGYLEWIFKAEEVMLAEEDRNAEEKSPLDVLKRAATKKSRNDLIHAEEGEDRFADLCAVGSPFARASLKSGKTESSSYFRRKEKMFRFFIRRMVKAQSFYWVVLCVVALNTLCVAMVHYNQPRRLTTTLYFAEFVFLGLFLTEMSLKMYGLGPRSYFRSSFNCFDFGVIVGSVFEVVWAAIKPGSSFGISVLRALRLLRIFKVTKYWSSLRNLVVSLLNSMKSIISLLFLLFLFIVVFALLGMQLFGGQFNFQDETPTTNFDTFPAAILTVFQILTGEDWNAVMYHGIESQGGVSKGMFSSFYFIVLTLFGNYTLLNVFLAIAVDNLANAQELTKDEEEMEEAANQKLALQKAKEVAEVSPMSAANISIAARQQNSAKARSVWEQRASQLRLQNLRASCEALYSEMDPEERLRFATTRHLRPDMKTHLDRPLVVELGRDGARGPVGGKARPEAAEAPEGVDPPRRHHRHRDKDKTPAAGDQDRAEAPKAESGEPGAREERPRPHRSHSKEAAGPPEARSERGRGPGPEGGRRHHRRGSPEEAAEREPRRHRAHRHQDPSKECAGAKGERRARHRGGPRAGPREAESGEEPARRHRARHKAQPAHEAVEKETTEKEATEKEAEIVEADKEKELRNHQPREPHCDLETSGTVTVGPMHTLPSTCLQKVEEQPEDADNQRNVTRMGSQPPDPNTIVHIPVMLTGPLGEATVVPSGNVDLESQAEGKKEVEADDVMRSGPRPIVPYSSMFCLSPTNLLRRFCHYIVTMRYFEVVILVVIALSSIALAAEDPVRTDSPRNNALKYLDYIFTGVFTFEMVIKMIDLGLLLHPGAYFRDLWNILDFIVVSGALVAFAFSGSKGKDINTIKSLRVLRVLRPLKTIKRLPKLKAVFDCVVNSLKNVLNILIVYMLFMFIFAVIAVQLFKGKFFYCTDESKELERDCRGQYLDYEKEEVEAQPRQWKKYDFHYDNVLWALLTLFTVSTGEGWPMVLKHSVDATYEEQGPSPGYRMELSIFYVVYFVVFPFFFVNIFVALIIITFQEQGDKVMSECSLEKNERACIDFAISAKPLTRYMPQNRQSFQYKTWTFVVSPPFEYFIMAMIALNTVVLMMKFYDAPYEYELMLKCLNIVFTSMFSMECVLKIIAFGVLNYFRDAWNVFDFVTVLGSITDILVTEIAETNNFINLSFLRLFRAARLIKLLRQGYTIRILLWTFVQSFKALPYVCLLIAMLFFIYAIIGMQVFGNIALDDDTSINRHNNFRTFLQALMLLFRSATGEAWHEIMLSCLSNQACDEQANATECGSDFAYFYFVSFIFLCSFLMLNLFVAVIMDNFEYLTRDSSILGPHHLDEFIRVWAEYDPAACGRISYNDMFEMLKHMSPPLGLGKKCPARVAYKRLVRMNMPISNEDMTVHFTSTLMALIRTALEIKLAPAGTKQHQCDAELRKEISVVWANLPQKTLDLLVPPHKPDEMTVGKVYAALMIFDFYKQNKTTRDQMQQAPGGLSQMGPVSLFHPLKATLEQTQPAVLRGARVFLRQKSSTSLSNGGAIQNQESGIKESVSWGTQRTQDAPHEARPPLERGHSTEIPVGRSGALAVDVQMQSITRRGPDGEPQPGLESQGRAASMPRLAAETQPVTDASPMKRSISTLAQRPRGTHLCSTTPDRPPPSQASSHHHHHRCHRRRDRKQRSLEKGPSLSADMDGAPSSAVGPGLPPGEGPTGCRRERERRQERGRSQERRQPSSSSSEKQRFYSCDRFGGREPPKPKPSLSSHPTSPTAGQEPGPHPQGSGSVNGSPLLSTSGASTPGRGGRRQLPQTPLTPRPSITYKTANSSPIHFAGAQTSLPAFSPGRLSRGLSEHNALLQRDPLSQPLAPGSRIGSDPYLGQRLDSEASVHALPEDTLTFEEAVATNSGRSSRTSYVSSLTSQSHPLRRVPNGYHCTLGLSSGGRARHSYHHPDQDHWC
T1 sequence (P54284 whole entry partner): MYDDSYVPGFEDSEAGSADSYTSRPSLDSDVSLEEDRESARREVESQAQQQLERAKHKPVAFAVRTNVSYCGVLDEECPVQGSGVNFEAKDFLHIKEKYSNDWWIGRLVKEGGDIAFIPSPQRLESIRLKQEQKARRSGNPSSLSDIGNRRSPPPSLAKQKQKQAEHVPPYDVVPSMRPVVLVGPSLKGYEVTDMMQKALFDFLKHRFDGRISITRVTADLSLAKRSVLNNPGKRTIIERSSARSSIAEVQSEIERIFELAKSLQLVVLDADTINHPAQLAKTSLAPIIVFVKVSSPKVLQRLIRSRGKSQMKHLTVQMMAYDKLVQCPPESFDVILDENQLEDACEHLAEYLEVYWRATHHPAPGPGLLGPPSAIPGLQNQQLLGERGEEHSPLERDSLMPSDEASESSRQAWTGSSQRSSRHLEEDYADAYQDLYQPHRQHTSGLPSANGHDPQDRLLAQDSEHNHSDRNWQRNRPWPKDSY
T1 sequence (P54289 25-946 partner limits assumed): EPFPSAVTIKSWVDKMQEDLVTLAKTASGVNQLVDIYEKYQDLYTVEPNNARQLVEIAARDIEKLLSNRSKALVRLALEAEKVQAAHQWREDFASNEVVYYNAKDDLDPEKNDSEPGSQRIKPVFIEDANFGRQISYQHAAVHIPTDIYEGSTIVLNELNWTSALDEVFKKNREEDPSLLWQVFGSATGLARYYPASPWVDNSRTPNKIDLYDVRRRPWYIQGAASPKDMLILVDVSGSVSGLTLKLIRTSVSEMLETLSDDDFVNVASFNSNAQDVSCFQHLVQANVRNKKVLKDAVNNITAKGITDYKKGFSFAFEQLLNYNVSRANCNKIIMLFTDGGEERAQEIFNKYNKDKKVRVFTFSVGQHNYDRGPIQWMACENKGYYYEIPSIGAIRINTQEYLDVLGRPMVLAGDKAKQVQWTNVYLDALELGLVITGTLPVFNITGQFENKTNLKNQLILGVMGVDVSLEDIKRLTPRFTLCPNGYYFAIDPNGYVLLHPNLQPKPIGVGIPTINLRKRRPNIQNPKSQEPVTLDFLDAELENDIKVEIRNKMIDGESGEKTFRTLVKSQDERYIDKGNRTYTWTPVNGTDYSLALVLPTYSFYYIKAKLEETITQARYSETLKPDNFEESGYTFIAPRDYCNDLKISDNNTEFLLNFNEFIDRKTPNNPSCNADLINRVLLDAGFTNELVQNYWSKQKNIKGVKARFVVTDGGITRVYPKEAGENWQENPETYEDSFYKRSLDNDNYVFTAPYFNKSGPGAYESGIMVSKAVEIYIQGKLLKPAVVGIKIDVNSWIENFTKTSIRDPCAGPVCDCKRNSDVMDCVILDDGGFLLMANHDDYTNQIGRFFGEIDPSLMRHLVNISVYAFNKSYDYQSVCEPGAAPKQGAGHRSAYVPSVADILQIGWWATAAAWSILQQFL
T1 sequence (P54289 947-1103 partner limits assumed): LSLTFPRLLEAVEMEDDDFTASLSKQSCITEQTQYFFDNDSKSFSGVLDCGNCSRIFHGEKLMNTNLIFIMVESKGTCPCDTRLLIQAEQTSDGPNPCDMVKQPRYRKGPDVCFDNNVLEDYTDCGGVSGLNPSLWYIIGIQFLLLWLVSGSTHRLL

IC50 [µM] | Compound
≤ 31.6 | CCS(=O)(=O)N1CCN(Cc2nnnn2-c2ccc(C#N)cc2)CC1 [Compound 118, 4-(5-{[4-(ethylsulfonyl)-1-piperazinyl]methyl}-1H-tetrazol-1-yl)benzonitrile]
≤ 3.16 | FC(F)(F)c1cc(-n2nnnc2CN2CCOCC2)ccc1Cl [Compound 111, 4-({1-[4-chloro-3-(trifluoromethyl)phenyl]-1H-tetrazol-5-yl}methyl)morpholine]
≤ 31.6 | CC(C)N1CCN(Cc2nnnn2-c2cccc(C(F)(F)F)c2)[C@H](C)C1 [Compound 94, (2R)-2-Methyl-4-(1-methylethyl)-1-({1-[3-(trifluoromethyl)phenyl]-1H-tetrazol-5-yl}methyl)piperazine hydrochloride]
≤ 31.6 | FC(F)(F)c1ccc(-n2nnnc2CN2CCN3CCCC3C2)cc1 (stereo not drawn) [Compound 70, 2-({1-[4-(Trifluoromethyl)phenyl]-1H-tetrazol-5-yl}methyl)octahydropyrrolo[1,2-a]pyrazine di-hydrochloride]
≤ 10 | O=C1CCC2CN(Cc3nnnn3-c3ccc(C(F)(F)F)cc3)CCN12 (stereo not drawn) [Compound 74, 2-({1-[4-(Trifluoromethyl)phenyl]-1H-tetrazol-5-yl}methyl)hexahydropyrrolo[1,2-a]pyrazin-6(2H)-one]
≤ 31.6 | C[C@@H]1COCCN1Cc1nnnn1-c1ccc(OC(F)F)cc1 [Compound 54, (3R)-4-[(1-{4-[(Difluoromethyl)oxy]phenyl}-1H-tetrazol-5-yl)methyl]-3-methylmorpholine hydrochloride]
≤ 31.6 | N#Cc1ccc(-n2nnnc2CN2CCC[C@@H]2C(F)(F)F)cc1 [Compound 73, 4-(5-{[(2R)-2-(Trifluoromethyl)-1-pyrrolidinyl]methyl}-1H-tetrazol-1-yl)benzonitrile]
≤ 31.6 | C[C@@H]1CN(Cc2nnnn2-c2ccc(Br)cc2Cl)C[C@H](C)O1 [Compound 57, cis-4-{[1-(4-Bromo-2-chlorophenyl)-1H-tetrazol-5-yl]methyl}-2,6-dimethylmorpholine hydrochloride]
≤ 31.6 | C[C@@H]1CN(Cc2nnnn2-c2cccc(C(F)(F)F)c2)C[C@H](C)O1 [Compound 3, (cis)-2,6-Dimethyl-4-({1-[3-(trifluoromethyl)phenyl]-1H-tetrazol-5-yl}methyl)morpholine]
≤ 31.6 | CCN1CCN(Cc2nnnn2-c2ccc(C(F)(F)F)cc2)[C@H](C)C1=O [Compound 52, (3R)-1-Ethyl-3-methyl-4-({1-[4-(trifluoromethyl)phenyl]-1H-tetrazol-5-yl}methyl)-2-piperazinone]
≤ 31.6 | CC(C)N1CCN(Cc2nnnn2-c2ccc(C(F)(F)F)cc2)CC1 [Compound 96, 1-(1-Methylethyl)-4-({1-[4-(trifluoromethyl)phenyl]-1H-tetrazol-5-yl}methyl)piperazine hydrochloride]
≤ 10 | FC(F)(F)c1cc(-n2nnnc2CN2C[C@@H]3C[C@H]2CO3)ccc1Cl [Compound 110, (1S,4S)-5-({1-[4-chloro-3-(trifluoromethyl)phenyl]-1H-tetrazol-5-yl}methyl)-2-oxa-5-azabicyclo[2.2.1]heptane hydrochloride]
≤ 31.6 | FC(F)(F)c1ccc(-n2nnnc2CCN2CCOCC2)cc1 [Compound 9, 4-(2-{1-[4-(Trifluoromethyl)phenyl]-1H-tetrazol-5-yl}ethyl)morpholine hydrochloride]
≤ 3.16 | CCS(=O)(=O)N1CCN(Cc2nnnn2-c2cccc(C(F)(F)F)c2)CC1 [Compound 48, 1-(Ethylsulfonyl)-4-({1-[3-(trifluoromethyl)phenyl]-1H-tetrazol-5-yl}methyl)piperazine]
≤ 31.6 | O=S1(=O)CCC2CN(Cc3nnnn3-c3cccc(C(F)(F)F)c3)CCN21 (stereo not drawn) [Compound 79, 5-({1-[3-(Trifluoromethyl)phenyl]-1H-tetrazol-5-yl}methyl)hexahydro-2H-isothiazolo[2,3-a]pyrazine 1,1-dioxide]
≤ 31.6 | CCN1CCN(Cc2nnnn2-c2cccc(C(F)(F)F)c2)[C@H](C)C1 [Compound 92, (2R)-4-Ethyl-2-methyl,-1-({1-[3-(trifluoromethyl)phenyl]-1H-tetrazol-5-yl}methyl)piperazine hydrochloride]
≤ 10 | CS(=O)(=O)N1CCN(Cc2nnnn2-c2cccc(C(F)(F)F)c2)CC1 [Compound 72, 1-(Methylsulfonyl)-4-({1-[3-(trifluoromethyl)phenyl]-1H-tetrazol-5-yl}methyl)piperazine]
≤ 31.6 | N#CC1CCN(Cc2nnnn2-c2cccc(C(F)(F)F)c2)C1 (stereo not drawn) [Compound 24, 1-({1-[3-(Trifluoromethyl)phenyl]-1H-tetrazol-5-yl}methyl)-3-pyrrolidinecarbonitrile hydrochloride]
≤ 3.16 | CCS(=O)(=O)N1CCN(Cc2nnnn2-c2ccc(C#N)c(C(F)(F)F)c2)CC1 [Compound 121, 4-(5-{[4-(ethylsulfonyl)-1-piperazinyl]methyl}-1H-tetrazol-1-yl)-2-(trifluoromethyl)benzonitrile]
≤ 3.16 | CCC(=O)N1CCN(Cc2nnnn2-c2ccc(C#N)c(C(F)(F)F)c2)CC1 [Compound 145, 4-{5-[(4-propanoyl-1-piperazinyl)methyl]-1H-tetrazol-1-yl}-2-(trifluoromethyl)benzonitrile]
≤ 3.16 | CC(C)N1CCC2(CCN(Cc3nnnn3-c3ccc(C#N)c(C(F)(F)F)c3)CC2)C1 [Compound 147, 4-(5-{[2-(1-methylethyl)-2,8-diazaspiro[4.5]dec-8-yl]methyl}-1H-tetrazol-1-yl)-2-(trifluoromethyl)benzonitrile dihydrochloride]
≤ 10 | CCS(=O)(=O)N1CCN(Cc2nnnn2-c2ccc(C(F)(F)F)cc2)CC1 [Compound 47, 1-(Ethylsulfonyl)-4-({1-[4-(trifluoromethyl)phenyl]-1H-tetrazol-5-yl}methyl)piperazine]

Compound | IC50 [µM]
N#Cc1ccc(-n2nnnc2CN2CCOCC2)cc1C(F)(F)F [Compound 34, 4-[5-(4-Morpholinylmethyl)-1H-tetrazol-1-yl]-2-(trifluoromethyl)benzonitrile hydrochloride] | ≤ 31.6
C[C@@H]1COCCN1Cc1nnnn1-c1ccc(C#N)c(C(F)(F)F)c1 [Compound 41, 4-(5-{[(3R)-3-Methyl-4-morpholinyl]methyl}-1H-tetrazol-1-yl)-2-(trifluoromethyl)benzonitrile] | ≤ 3.16

Source: patent publication US9750719B2, “Tetrazole compounds as calcium channel blockers” (CONVERGENCE PHARMACEUTICALS LIMITED, priority 2010, dated 2017)
